Laboratory results from publication PMC5847527, “Identification of a novel 2-oxindole fluorinated derivative as in vivo antitumor agent for prostate cancer acting via AMPK activation” (Scientific Reports, 2018).
pIC50: −log10 of the molar value.

Key:
[1] = tested on: PNT2 cells; experiment: Cell viability by MTT assay, PNT2 normal prostate cells; assay type: cell-based, human
Description: (§1) Figure 3 Comparison of the effect of 2-oxindole fluorinated derivatives on the proliferation of human prostate cancer cells. (A) Normal (PTN2 and RWPE-1) and cancer (PC3,DU145 and LNCaP) prostate cells were treated with different doses of the compounds for 24 hours and cell viability was monitored by MTT assay. […] (C) PC-3, DU145 and LNCaP cells were treated with 25 µM of compound 8c for different times. Values were normalized with the control and represent the mean ± SD of at least three independent experiments. *p < 0.05 and **p < 0.01 compared to control by the Student’s - test.
(§2) Human prostate cancer epithelial PC-3, DU145 and LNCaP and human prostate normal RWPE-1 cells were purchased from American Type Culture Collection (ATCC CRL-1435 CRL-1740 and CRL 11609 respectively) (Rockville, MD, USA). The human prostate normal PNT2 cell line was purchased to ECACC (European Collection of Cell cultures, Salisbury, SP4 0JG, UK). Cells were routinely grown in RPMI 1640 medium supplemented with 100 IU/ml penicillin G sodium, 100 µg/ml streptomycin sulfate, 0.25 µg/ml amphotericin B (Invitrogen, Paisley, UK) and 10% fetal calf serum. Cells were used at passages between 10–20. For treatment experiments, cells were plated and grown over night, the medium was then replaced with serum-free RPMI 1640 for 24 hours and then incubated with different doses of the compounds for the indicated times.
(§3) Cell viability was determined by 3-(4,5-dimethylthiazol-2-yl)-2,5-diphenyltetrazolium bromide (MTT) (Sigma-Aldrich) method. […] The optical density in each well was evaluated by measurement of absorbance at 490 and 650 nm using a microplate reader (ELX 800 Bio-Tek Intruments, INC). IC50 values were calculated using GraphPad Prism vs 6.0 (GraphPad Software, Inc, La Jolla, CA, USA). Cell viability was also determined by counting viable and dead cells by Trypan blue staining. Trypan blue positive and negative cells were counted using a Countess^TM automated cell counter (Invitrogen, Carlsbad, CA, USA). Results were expressed in relation to total number of cells counted.

[2] = tested on: RWPE-1 cells; experiment: Cell viability by MTT assay, RWPE-1 normal prostate cells; assay type: cell-based, human
Description: as §1, §2, §3

[3] = tested on: LNCaP cells; experiment: Cell viability by MTT assay, LNCaP; assay type: cell-based, human
Description: as §1, §2, §3

[4] = tested on: PC-3 cells; experiment: Cell viability by MTT assay, PC-3; assay type: cell-based, human
Description: as §1, §2
Cell viability was determined by 3-(4,5-dimethylthiazol-2-yl)-2,5-diphenyltetrazolium bromide (MTT) (Sigma-Aldrich) method. In brief, a total of 5000 cells/well were seeded into 12-well plate in a final volume of 1 mL. After treatments, 20 µl MTT solution (5 mg/ml in PBS) was added to the medium and cells were incubated at 37 °C for 4 h. Then, the supernatant was discarded and isopropanol was added to dissolve the formazan crystals. Treatments were carried out in triplicate. The optical density in each well was evaluated by measurement of absorbance at 490 and 650 nm using a microplate reader (ELX 800 Bio-Tek Intruments, INC). IC50 values were calculated using GraphPad Prism vs 6.0 (GraphPad Software, Inc, La Jolla, CA, USA). Cell viability was also determined by counting viable and dead cells by Trypan blue staining. Trypan blue positive and negative cells were counted using a Countess^TM automated cell counter (Invitrogen, Carlsbad, CA, USA). Results were expressed in relation to total number of cells counted.

[5] = tested on: PC-3 xenograft tumors; experiment: PC-3 xenograft tumor growth in nude mice; assay type: in vivo; details: 5 mg/Kg daily, 15 days
Source text: To validate the therapeutic value of the compound 8c against castration-resistant prostate cancer a murine xenograft model was employed. Due to the potent effect of compound 8c on the aggressive PC-3 cell line and in order to avoid unnecessary wasting of animals according to the 3 Rs guidelines (reduction, replacement, refinement) for the use of animals in research, we only use PC-3 cells for the in vivo studies. PC-3 tumors were induced in nude mice by subcutaneous injection of cells in the right flank of the mouse. When tumors reached a 70 mm^3 volume, mice were daily treated with 5 mg/Kg of compound 8c. In vehicle-treated mice, an increase in tumor growth volume was observed during the course of the study and at the end of experimentation (Fig. 8A).
Figure 8 Inhibition of prostate tumor xenograft growth in vivo by compound 8c. […]
Male immunodeficient nude-Foxn1 (nu/nu) mice (Envigo RMS, Barcelona, Spain), 4 to 6 week old, were used for all xenograft studies. […] Tumors were measured with external calipers and volume was calculated by the modified ellipsoidal formula as volume = length × (width)^2 × 0.52 mm^3 [52],[53]. At the end of the study, the mice were sacrificed by placing them in a CO2 gas-filled chamber, and the excised tumors were recovered and homogenized in lysis buffer for protein quantification and Western blotting.

O=C1Nc2ccccc2C1(F)Cc1ccc(-c2ccccc2)o1 (stereo not shown) [Compound 8c, 3-fluoro-3-((5-phenylfuran-2-yl)methyl)indolin-2-one]
pIC50 ([1]; Homo sapiens, PNT2, MTT, 24 hours): 4.19 | inhibitory efficacy on cells viability at 50 μM ([1]; PNT2, 50 μM): 56% | pIC50 ([2]; Homo sapiens, RWPE-1, MTT, 24 hours): < 3.00 | inhibitory efficacy on cells viability at 50 μM ([2]; RWPE-1, 50 μM): 50% | inhibitory efficacy on cells viability at 50 μM ([3]; 50 μM): 85% | pIC50 ([3]; Homo sapiens, MTT, 24 hours): 4.52 | pIC50 ([4]; Homo sapiens, PC-3, MTT, 24 hours): 4.74 | inhibitory efficacy on cells viability at 50 μM ([4]; PC-3, 50 μM): 84% | AMPK activation, ACC phosphorylation, Cyclin D1 and procaspase-3 levels in xenograft tumors ([5]; Western blot of tumors): promoted AMPK activation, increased ACC phosphorylation, decreased Cyclin D1 and decreased procaspase-3 levels | xenograft tumor growth ([5]; subcutaneously, nude mice, vs vehicle): significantly reduced tumor growth
